ChEMBL document CHEMBL4619734, “Molecule Property Analyses of Active Compounds for Mycobacterium tuberculosis” (J Med Chem, 2020)
Values after ≈ are worked out from the molar mass of the structure shown.

What was measured:
[1] = test system: Mycobacterium tuberculosis; assay: Antimycobacterial activity against Mycobacterium tuberculosis; format: functional
[2] = test system: Mycobacterium tuberculosis; assay: Antimycobacterial activity against Mycobacterium tuberculosis H37Rv; format: functional
[3] = test system: Mycobacterium tuberculosis; assay: Antimycobacterial activity against Mycobacterium tuberculosis H37Rv ATCC 27294 assessed as reduction in mycolic acids synthesis after 8 hrs in presence of [1, 2-14C]-acetate by TLC analysis; format: functional; conditions: H37Rv ATCC 27294, 8 h
[4] = Inhibition of human cytoplasmic LeuRS
Leucine--tRNA ligase = target: T1, Leucine--tRNA ligase (Mycobacterium tuberculosis (strain ATCC 25618 / H37Rv), UniProt P9WFV1); assay: Inhibition of Mycobacterium tuberculosis LeuRS expressed in Escherichia coli Rosetta (DE3) cells
T1 sequence (P9WFV1 whole entry): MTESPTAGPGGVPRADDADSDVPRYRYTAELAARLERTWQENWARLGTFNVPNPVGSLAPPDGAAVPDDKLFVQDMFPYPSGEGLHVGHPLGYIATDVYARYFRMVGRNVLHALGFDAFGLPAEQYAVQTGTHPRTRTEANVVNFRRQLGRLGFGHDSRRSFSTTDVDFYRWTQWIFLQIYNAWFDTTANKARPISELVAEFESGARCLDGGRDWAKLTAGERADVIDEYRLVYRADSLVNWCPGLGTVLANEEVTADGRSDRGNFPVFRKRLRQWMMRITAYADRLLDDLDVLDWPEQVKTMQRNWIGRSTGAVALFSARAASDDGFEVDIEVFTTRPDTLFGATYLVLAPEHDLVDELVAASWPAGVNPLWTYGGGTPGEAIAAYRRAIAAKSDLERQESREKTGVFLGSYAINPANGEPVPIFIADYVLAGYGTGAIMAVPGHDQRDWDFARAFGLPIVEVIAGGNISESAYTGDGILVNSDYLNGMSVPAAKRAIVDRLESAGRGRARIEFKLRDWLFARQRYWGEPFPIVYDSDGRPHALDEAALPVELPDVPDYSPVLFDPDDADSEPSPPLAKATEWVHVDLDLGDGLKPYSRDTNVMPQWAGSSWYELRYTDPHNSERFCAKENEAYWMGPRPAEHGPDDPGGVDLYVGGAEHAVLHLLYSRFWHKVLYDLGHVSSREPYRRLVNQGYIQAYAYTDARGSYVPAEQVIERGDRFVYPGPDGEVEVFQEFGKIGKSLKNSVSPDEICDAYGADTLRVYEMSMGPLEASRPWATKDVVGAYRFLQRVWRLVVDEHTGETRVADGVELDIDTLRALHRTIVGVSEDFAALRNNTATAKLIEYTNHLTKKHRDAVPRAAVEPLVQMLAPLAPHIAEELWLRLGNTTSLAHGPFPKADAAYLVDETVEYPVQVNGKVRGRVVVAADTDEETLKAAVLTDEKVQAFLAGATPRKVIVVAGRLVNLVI

[5] = test system: Mycobacterium tuberculosis; assay: Antimycobacterial activity against Mycobacterium tuberculosis H37Rv expressing LeuRS; format: functional
[6] = test system: Mycobacterium tuberculosis; assay: Antimycobacterial activity against Mycobacterium tuberculosis H37Ra after 7 to 8 days by MABA assay; format: functional
[7] = test system: Mycobacterium tuberculosis; assay: Antimycobacterial activity against Mycobacterium tuberculosis expressing Rv1258c efflux pump; format: functional
Mycobacterium avium [8] = assay: Antimycobacterial activity against Mycobacterium avium 33 expressing MraY; format: functional
[9] = test system: Mycobacterium tuberculosis; assay: Antimycobacterial activity against Mycobacterium tuberculosis clinical isolates; format: functional
[10] = test system: Mycobacterium tuberculosis; assay: Antimycobacterial activity against Mycobacterium tuberculosis expressing WecA; format: functional
Mycobacterium avium [11] = assay: Antimycobacterial activity against Mycobacterium avium infected in mouse assessed as reduction in mycolic acids synthesis; format: functional
[12] = test system: Mycolicibacterium smegmatis; assay: Antimycobacterial activity against Mycobacterium smegmatis; format: functional
[13] = test system: Mycobacterium tuberculosis; assay: Antimycobacterial activity against Mycobacterium tuberculosis expressing DprE1; format: functional

With `c1ccc(-c2c[nH]cn2)cc1` the MIC [1] was < 10 µM.

`CCCCS(=O)(=O)Nc1ccc2cnn(C)c2c1` showed an MIC [2] of 0.8 µM (≈ 0.214 µg/mL).

With `COc1ccc(/C(C)=N/NC(N)=S)cc1` the MIC [3] was < 0.05 µg/mL.

Work on `NC[C@H]1OB(O)c2c(OCCO)ccc(Cl)c21` yielded an IC50 [4] of 140 µM, an IC50 (Leucine--tRNA ligase) of 0.216 µM and an MIC [5] of 0.08 µM (≈ 0.0206 µg/mL).

`NC(=O)c1sc(N2CCOCC2)cc1OCCc1ccc(OC(F)(F)F)cc1` showed an MIC [1] of 0.24 µM.

`CCCCCCCCCCNC(CC(=O)OCC)[C@H]1O[C@@H]2OC(C)(C)O[C@@H]2C1OC` (some centres not stated) showed an MIC [6] of 3.12 µg/mL (≈ 7.26 µM).

Work on `CN[C@H]1[C@@H](O)[C@@H](NC)CC2O[C@@H]3O[C@H](C)C[C@@H](NC(=O)Cc4ccc(O)cn4)[C@]3(O)C[C@@H]21` (some centres not stated) yielded an MIC [7] of 1.6 µg/mL (≈ 3.55 µM).

For `CN[C@H]1[C@@H](O)[C@@H](NC)CC2O[C@@H]3O[C@H](C)C[C@@H](NC(=O)Cc4ccc(Cl)cn4)[C@]3(O)C[C@@H]21` (some centres not stated), the MIC [7] was 0.8 µg/mL (≈ 1.71 µM).

In the case of `CO[C@H]1[C@@H](O)[C@H](n2ccc(=O)[nH]c2=O)O[C@@H]1[C@@H](O[C@H]1OC(C(=O)NC2CCC[C@@H](C)NC2=O)=C[C@H](O)[C@@H]1O)C(N)=O` (some centres not stated), the MIC (Mycobacterium avium [8]) is reported as 1 µg/mL (≈ 1.71 µM).

`Cc1ccc(OCCCCCCn2ccnc2)c(C)c1` showed an MIC [1] of 4.8 µg/mL.

For `CC(=O)NC[C@H]1CN(c2cc(F)c(C3=CCN(C(=O)[C@@H](O)CO)CC3)c(F)c2)C(=O)O1`, the MIC [9] was 0.25 to 1 µg/mL (≈ 0.569 to 2.28 µM).

With `CCCCc1ccc(NC(=O)C2=CCN(C)C(C(O[C@@H]3O[C@H](CN)[C@@H](O)[C@H]3O)[C@H]3OC(n4ccc(=O)[nH]c4=O)[C@H](O)[C@@H]3O)C(=O)N2C)cc1` (some centres not stated) the MIC [10] was 1.56 µg/mL (≈ 2.27 µM).

`Cc1c(C(=O)C2CC2)[n+]([O-])c2cc(Cl)c(Cl)cc2[n+]1[O-]` showed an MIC [1] of 1.2 µg/mL.

`Cc1nn2c(O)cc(-c3ncccn3)nc2c1-c1ccc(Cl)cc1` showed an MIC [1] of 1.1 µg/mL.

`O=[N+]([O-])c1ccc(/C=N/Nc2nc(Nc3ccccc3)nc(N3CCOCC3)n2)o1` gave an MIC [1] of 0.63 µM.

For `O=[N+]([O-])c1ccc(/C=N/Nc2nc(Nc3ccccc3)nc(Nc3ccccc3)n2)o1`, the MIC [1] was 0.078 µM.

For `Cc1ccc(C(=O)Nc2ccc([N+](=O)[O-])cc2)s1`, the MIC [1] was 0.5 µg/mL.

In the case of `CCCCCCCCc1nc2cc(C)c(C)cc2[nH]1`, the MIC90 [1] is reported as 0.75 µM.

For `CC(=O)Nc1ccc(/C=N/NC(N)=S)cc1` [AMITHIOZONE], the MIC (Mycobacterium avium [11]) was 0.1 µg/mL (≈ 0.423 µM).

With `COc1nc2ccc(Br)cc2cc1[C@@H](c1ccccc1)[C@@](O)(CCN(C)C)c1cccc2ccccc12` [BEDAQUILINE] the MIC99 [12] was 0.03 µg/mL (≈ 0.054 µM).

With `C[C@H]1COC2(CCN(c3nc(=O)c4cc(C(F)(F)F)cc([N+](=O)[O-])c4s3)CC2)O1` [BTZ-043] the MIC [13] was 0.001 µg/mL (≈ 0.00232 µM).

Work on `C[C@]1(COc2ccc(N3CCC(Oc4ccc(OC(F)(F)F)cc4)CC3)cc2)Cn2cc([N+](=O)[O-])nc2O1` [DELAMANID] yielded an MIC [1] of 0.012 µg/mL.

Work on `NC(=S)N/N=C/c1cccnc1` [NICOTHIAZONE] yielded an MIC [3] of 3.1 µg/mL.

Work on `O=[N+]([O-])c1cn2c(n1)OC[C@@H](OCc1ccc(OC(F)(F)F)cc1)C2` [PRETOMANID] yielded an MIC90 [1] of 0.039 µg/mL.

Compound `CC(=O)NC[C@H]1CN(c2ccc(N3CCSCC3)c(F)c2)C(=O)O1` [SUTEZOLID] has an MIC [1] of 0.03 to 0.5 µg/mL.
